Values quoted from earlier work, collected in PMC7347157 (Chemical communications (Cambridge, England), 2019).

Settings: unlabeled dienophile

Molecule | log P
OC1CC/C=C/CCC1 (stereo not drawn) [5-hydroxy-trans-cyclooctene] | 1.11
trans-5-oxocene [compound 4] | 0.51
